Measured values as given in ChEMBL document CHEMBL6083177, “Targeting bromodomian-containing protein 8 (BRD8): An advanced tool to interrogate BRD8” (Eur J Med Chem, 2024).

What was measured:
[1] = biological target: T1, Bromodomain-containing protein 9 (Homo sapiens, UniProt Q9H8M2); test: Inhibition of BRD9 (unknown origin) by TR-FRET assay
T1 sequence (Q9H8M2 whole entry): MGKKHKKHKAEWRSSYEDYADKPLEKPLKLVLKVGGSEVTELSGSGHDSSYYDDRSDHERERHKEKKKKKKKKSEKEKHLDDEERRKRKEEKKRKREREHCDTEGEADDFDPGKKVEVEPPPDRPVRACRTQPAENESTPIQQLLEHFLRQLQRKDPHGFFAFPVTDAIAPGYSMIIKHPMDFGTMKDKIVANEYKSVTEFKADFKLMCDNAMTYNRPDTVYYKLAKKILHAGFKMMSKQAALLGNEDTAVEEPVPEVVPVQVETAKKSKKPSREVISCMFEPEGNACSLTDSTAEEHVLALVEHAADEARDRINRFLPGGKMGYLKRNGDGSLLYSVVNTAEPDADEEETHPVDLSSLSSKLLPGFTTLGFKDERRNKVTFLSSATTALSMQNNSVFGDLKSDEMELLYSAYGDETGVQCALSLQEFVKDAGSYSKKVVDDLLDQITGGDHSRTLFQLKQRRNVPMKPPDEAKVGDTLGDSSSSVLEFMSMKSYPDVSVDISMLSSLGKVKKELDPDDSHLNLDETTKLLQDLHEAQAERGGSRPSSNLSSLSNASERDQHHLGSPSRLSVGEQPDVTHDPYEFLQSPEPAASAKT

[2] = Inhibition of BRD8/BRD1 (unknown origin)
[3] = Inhibition of BRD4/BRD1 (unknown origin)
[4] = biological target: T2, Bromodomain-containing protein 1 (Homo sapiens, UniProt O95696); test: Inhibition of BRD1 (unknown origin)
T2 sequence (O95696 whole entry): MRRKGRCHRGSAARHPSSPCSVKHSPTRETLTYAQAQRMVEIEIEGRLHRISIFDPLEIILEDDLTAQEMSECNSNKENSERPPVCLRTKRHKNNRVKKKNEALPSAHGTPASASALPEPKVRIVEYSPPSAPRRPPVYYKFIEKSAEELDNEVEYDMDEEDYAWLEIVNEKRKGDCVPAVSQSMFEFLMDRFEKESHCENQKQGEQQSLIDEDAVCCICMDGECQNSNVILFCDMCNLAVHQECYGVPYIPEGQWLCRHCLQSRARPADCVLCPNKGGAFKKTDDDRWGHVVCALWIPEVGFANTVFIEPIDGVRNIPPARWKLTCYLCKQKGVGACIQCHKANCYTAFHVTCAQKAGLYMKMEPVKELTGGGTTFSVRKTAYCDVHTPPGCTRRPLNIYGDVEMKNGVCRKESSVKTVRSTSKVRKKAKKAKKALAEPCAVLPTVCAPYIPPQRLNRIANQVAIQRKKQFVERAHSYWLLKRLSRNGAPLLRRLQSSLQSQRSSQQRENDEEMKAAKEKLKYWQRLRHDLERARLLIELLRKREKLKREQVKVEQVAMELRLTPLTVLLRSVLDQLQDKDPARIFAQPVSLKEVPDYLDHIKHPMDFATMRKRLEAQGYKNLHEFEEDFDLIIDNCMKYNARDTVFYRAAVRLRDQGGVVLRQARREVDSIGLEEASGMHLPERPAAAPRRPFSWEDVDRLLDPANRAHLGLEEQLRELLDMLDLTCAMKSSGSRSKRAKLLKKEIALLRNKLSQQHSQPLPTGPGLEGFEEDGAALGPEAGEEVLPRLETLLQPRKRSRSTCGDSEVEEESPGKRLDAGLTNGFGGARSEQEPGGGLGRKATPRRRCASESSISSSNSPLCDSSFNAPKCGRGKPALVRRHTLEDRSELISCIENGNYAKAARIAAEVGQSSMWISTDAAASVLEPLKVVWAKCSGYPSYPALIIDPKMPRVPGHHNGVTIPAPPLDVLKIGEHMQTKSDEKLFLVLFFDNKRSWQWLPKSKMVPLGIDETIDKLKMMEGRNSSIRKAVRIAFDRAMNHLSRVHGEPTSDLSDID

[5] = Inhibition of BRD8/BRD1 (unknown origin) by Alpha Screen assay
[6] = Inhibition BRD9/BRD1 (unknown origin) by Alpha Screen assay

Row | SMILES | IC50 [1] [nM] | IC50 [2] [nM] | IC50 [3] [nM] | IC50 [4] [nM] | IC50 [5] [nM] | IC50 [6] [nM]
1 | COc1cc(-c2cn(C)c(=O)c3cc(F)ccc23)c(OC)cc1CN(C)C | 20 | 160 | > 10000 | – | – | –
2 | COc1cc(CN(C)C)cc(OC)c1-c1cn(C)c(=O)c2cnccc12 | > 10000 | 80 | > 10000 | – | – | –
3 | COc1cc(-c2cn(C)c(=O)c3cnccc23)c(OC)cc1CN1CC(N)C1 | < 10 | – | 7400 | 490 | – | –
4 | COc1cc(CN(C)C)cc(OC)c1-c1cn(C)c(=O)c2cc(F)ccc12 | – | – | – | – | 12 | 10000
